# Source: publication PMC8781960, “Structural Basis of 2-Phenylamino-4-phenoxyquinoline Derivatives as Potent HIV-1 Non-Nucleoside Reverse Transcriptase Inhibitors” (Molecules, 2022)
# Marks after values point to notes of the source that are not given here.
# Tests used:
# HIV-1 RT = target: T1, HIV-1 RT (Human immunodeficiency virus type 1 group M subtype B, UniProt P03366); experiment: HIV-1 RT inhibition assay (Roche RT kit, colorimetric ELISA); type: biochemical; settings: read-out: Inhibitory activities (%) against HIV-1 RT
# T1 construct: The reaction mixture consisted of template/primer complex, 2′-deoxy-nucleotide-5′-triphosphates (dNTPs), and RT enzyme in lysis buffer; purchased Roche Applied Science, Mannheim, Germany
# Excerpt: The inhibition assay of HIV-1 RT was accomplished using the template/primer hybrid poly(A) × oligo(dT)15, digoxigenin (DIG)- and biotin-labeled nucleotides, an antibody to DIG that was conjugated to peroxidase (anti-DIG-POD), and the peroxidase substrate ABTS. The quantities of DIG- and biotin-labeled dUTP incorporated into DNA represent t HIV-1 RT activity. The HIV-RT inhibition assay was implemented using an RT assay kit (Roche Applied Science, Mannheim, Germany), and the procedures for assaying RT inhibition were performed as described in the kit protocol. […] The reaction mixture consisted of template/primer complex, 2′-deoxy-nucleotide-5′-triphosphates (dNTPs), and RT enzyme in lysis buffer with or without an inhibitor. […] The biotin-labeled dNTPs that were incorporated in the template bound to streptavidin because of the presence of RT. Unbound dNTPs were washed using a wash buffer, and anti-DIG-POD was added to the MTP. The DIG-labeled dNTPs incorporated in the template bound to the anti-DIG-POD antibody. Unbound anti-DIG-POD was also washed elaborately five times using a wash buffer. Finally, the peroxide substrate (ABST) was added to the MTP. A colored reaction product emerged during the cleavage of the substrate catalyzed by […]. The absorbance of the sample was measured at the optical density (OD) at 490 nm using the MTP (enzyme-linked immunosorbent assay [ELISA]) reader. The percentage inhibitory activities of the RT inhibitors were calculated by comparing with that of the sample without an inhibitor. The resulting color intensity was directly proportional to the RT activity. Percentage inhibitory values were calculated using the following formula: Inhibition (%) = [1–(OD value with RT and inhibitor−OD value without RT and inhibitors)/(OD value without inhibitors with RT−OD value without RT and inhibitors)] × 100.
# [1] = system: H69AR (lung cancer, multidrug resistant); experiment: In vitro cytotoxicity (MTT); type: cell-based, human; settings: 48 h; for %C percentage cytotoxicity H69AR: human, 50 µg/mL; for IC50: Homo sapiens, H69AR, mean ± standard error
# Procedure: Background control wells contained the same volume as the complete culture medium. […] The reagent was dissolved in phosphate-buffered saline at 5 mg/mL and filtered to sterilize and remove the small amount of insoluble residue present in some batches of MTT. […] Subsequently, dimethyl sulfoxide (100 µL; Merck, Germany) was added to dissolve the resulting formazan by sonication. The plates were read on a microplate reader (Molecular Devices, CA, USA) using a test wavelength of 550 nm and a reference wavelength of 650 nm.
# [2] = system: MOLT-3 (acute lymphoblastic leukemia); experiment: In vitro cytotoxicity (XTT); settings: for IC50: Homo sapiens, MOLT-3, 48 h, read-out: IC50 MOLT-3; for %C percentage cytotoxicity MOLT-3: at 50 µg/mL, inactive (IC50 ≥ 50 µg/mL)
# Procedure: (§1) Background control wells contained the same volume as the complete culture medium. […] Samples at various concentrations were added to the microplate and incubated for another 48 h. Cell viability was determined by 3(4,5-dimethylthiazol-2-yl)-2-5-diphenyl tetrazolium bromide (MTT) assay (Sig-ma-Aldrich). The reagent was dissolved in phosphate-buffered saline at 5 mg/mL and filtered to sterilize and remove the small amount of insoluble residue present in some batches of MTT. […] Subsequently, dimethyl sulfoxide (100 µL; Merck, Germany) was added to dissolve the resulting formazan by sonication. The plates were read on a microplate reader (Molecular Devices, CA, USA) using a test wavelength of 550 nm and a reference wavelength of 650 nm. XTT assay for suspension cells was used for MOLT-3 cells.
# [3] = system: MRC-5 (normal embryonic lung cell); experiment: In vitro cytotoxicity (MTT), normal cell line; settings: for IC50: Homo sapiens, MRC5, 48 h, read-out: IC50 MRC-5
# Procedure: as §1
# [4] = system: HeLA (cervical carcinoma); experiment: In vitro cytotoxicity (MTT); settings: for IC50: Homo sapiens, HeLa, 48 h, read-out: IC50 HeLA; for %C percentage cytotoxicity HeLA: at 50 µg/mL, inactive (IC50 ≥ 50 µg/mL)
# Procedure: as §1
# HL-60 (promyeloblast) = experiment: In vitro cytotoxicity (MTT); settings: for IC50: Homo sapiens, HL-60, 48 h, read-out: IC50 HL-60; for %C percentage cytotoxicity HL-60: at 50 µg/mL, inactive (IC50 ≥ 50 µg/mL)
# Procedure: as §1
# [5] = system: HuCCA-1 (cholangiocarcinoma); experiment: In vitro cytotoxicity (MTT); settings: for IC50: Homo sapiens, HuCC-A1, 48 h, read-out: IC50 HuCCA-1
# Procedure: as §1
# S102 (Thai liver cancer) = experiment: In vitro cytotoxicity (MTT); settings: for %C percentage cytotoxicity S102: at 50 µg/mL, inactive (IC50 ≥ 50 µg/mL)
# Procedure: as §1
# [6] = system: MDA-MB-231 (hormone-independent breast cancer); experiment: In vitro cytotoxicity (MTT); settings: for IC50: Homo sapiens, MDA-MB-231, 48 h, read-out: IC50 MDA-MB-231
# Procedure: as §1
# HepG2 (hepatocarcinoma) = experiment: In vitro cytotoxicity (MTT); settings: for IC50: Homo sapiens, HepG2, 48 h, read-out: IC50 HepG2
# Procedure: as §1
# [7] = system: T47-D (hormone-dependent breast cancer); experiment: In vitro cytotoxicity (MTT); settings: for %C percentage cytotoxicity T47-D: at 50 µg/mL, inactive (IC50 ≥ 50 µg/mL); for IC50: Homo sapiens, T47D, 48 h, read-out: IC50 T47-D
# Procedure: as §1
# A549 (lung carcinoma) = experiment: In vitro cytotoxicity (MTT); settings: for %C percentage cytotoxicity A549: at 50 µg/mL, inactive (IC50 ≥ 50 µg/mL); for IC50: Homo sapiens, A549, 48 h, read-out: IC50 A549
# Procedure: as §1
# [8] = at 50 µg/mL, inactive (IC50 ≥ 50 µg/mL)
SMILES,inhibition at 1 µM (HIV-1 RT),%C percentage cytotoxicity H69AR [1],melting point,IC50 [2],IC50 [3],IC50 [4],IC50 (HL-60 (promyeloblast)),IC50 [5],%C percentage cytotoxicity S102 (S102 (Thai liver cancer)),IC50 (HepG2 (hepatocarcinoma)),%C percentage cytotoxicity T47-D [7],%C percentage cytotoxicity A549 (A549 (lung carcinoma)),IC50 [1],IC50 [6],IC50 [7],IC50 (A549 (lung carcinoma)),%C percentage cytotoxicity MOLT-3 [2],%C percentage cytotoxicity HeLA [4],%C percentage cytotoxicity HL-60 (HL-60 (promyeloblast)),also measured
"O=Cc1ccc(Oc2cc(Oc3ccc(C=O)cc3)c3ccccc3n2)cc1 [Compound 4a, 2,4-di-(4′-formylphenoxy)-quinoline]",17.3 ± 2.4%,%C = 0.0 ^c,164.9 to 165.5 °C,25.1 ± 2.6 µM,84.3 ± 9.6 µM,104 ± 7.9 µM,92.4 ± 3.1 µM,48.1 ± 1.7 µM,%C = 0.4 ^c,90.9 ± 2.1 µM,%C = 34.0 ^c,%C = 40.0 ^c,,,,,,,,"%C percentage cytotoxicity MDA-MB-231 [6, 8]: %C = 43.3 ^c"
"Cc1cc(C=O)cc(C)c1Oc1cc(Oc2c(C)cc(C=O)cc2C)c2ccccc2n1 [Compound 4b, 2,4-di-(2′,6′-Dimethyl-4′-formylphenoxy)-quinoline]",42.1 ± 2.5%,,120.5 to 121 °C,61.6 ± 0.7 µM,60.4 ± 2 µM,5.3 ± 0.2 µM,5.7 ± 2 µM,11.1 ± 0.7 µM,,50.6 ± 1.2 µM,,,30.9 ± 5.7 µM,15.3 ± 1.6 µM,22.5 ± 3.3 µM,38.5 ± 1.3 µM,,,,"IC50 (S102 (Thai liver cancer); Homo sapiens, 48 h, read-out: IC50 S102): 89.4 ± 0.1 µM"
"N#Cc1ccc(Oc2cc(Oc3ccc(C#N)cc3)c3ccccc3n2)cc1 [Compound 4c, 2,4-di-(4′-cyanophenoxy)-quinoline]",30.9 ± 1.8%,%C = 21.0 ^c,220.9 to 221.5 °C,,108 ± 6.4 µM,,,,%C = 23.7 ^c,,%C = 27.0 ^c,%C = 12.0 ^c,,92.5 ± 4.2 µM,,,%C = 11.0 ^c,%C = 23.0 ^c,%C = 15.0 ^c,"%C percentage cytotoxicity HuCCA-1 [5, 8]: %C = 15.0 ^c; %C percentage cytotoxicity HepG2 (HepG2 (hepatocarcinoma); [8]): %C = 41.4 ^c"
"Cc1cc(C#N)cc(C)c1Oc1cc(Oc2c(C)cc(C#N)cc2C)c2ccccc2n1 [Compound 4d, 2,4-di-(2′,6′-Dimethyl-4′-cyanophenoxy)-quinoline]",40.3 ± 3.3%,%C = 38.0 ^c,201.8 to 202.4 °C,,,,,83.5 ± 11.1 µM,%C = 31.5 ^c,92.2 ± 6.8 µM,,,,92.5 ± 5 µM,55.2 ± 1.5 µM,55.5 ± 5.7 µM,%C = 13.0 ^c,%C = 40.0 ^c,%C = 23.0 ^c,"%C percentage cytotoxicity MRC-5 ([3]; normal cell line, at 50 µg/mL, inactive (IC50 ≥ 50 µg/mL)): %C = 26.9 ^c"
"N#Cc1ccc(Nc2cc(Oc3ccc(C=O)cc3)c3ccccc3n2)nc1 [Compound 6a, 4-(4’-formylphenoxy)-2-(5″-cyanopyridin-2″ylamino)quinoline]",19.4 ± 1.8%,,248 to 249 °C,5.13 ± 1.5 µM,18.3 ± 3.9 µM,15.4 ± 0.8 µM,15 ± 1.8 µM,14.9 ± 1.1 µM,%C = 31.7 ^c,23.7 ± 1 µM,,%C = 42.0 ^c,64.2 ± 2.5 µM,68 ± 2 µM,46.3 ± 0.2 µM,,,,,
